Source: paper PMC4748415, “Impact of different cell penetrating peptides on the efficacy of antisense therapeutics for targeting intracellular pathogens” (Scientific Reports, 2016)
“Also recorded” adds a separate entry of the source. Read-outs that look alike come from different tables or passages of the source. Marks after values point to notes of the source that are not given here.

Tests used:
[1] = system: clinical isolates of L. monocytogenes; type: cell-based, Listeria monocytogenes; settings: for MIC: broth microdilution in low binding tubes, triplicates, 16 hour incubation
Protocol: (§1) The MICs of conjugated PNAs, free PNA, CPPs and untreated control against L. monocytogenes were determined using the broth microdilution method according to the Clinical and Laboratory Standards Institute (CLSI) guidelines with the following modifications. Briefly, low binding clear microcentrifuge tubes (USA scientific, Inc. Ocala, FL) were used in triplicates for each reaction instead of traditional 96-well plates. […] After a 16 hour incubation period (of test agent with bacteria), the number of viable bacteria was enumerated by serial dilution and counting on TSA plates. The MICs were repeated at least twice.

L. monocytogenes F4244 [2] = assay: Concentration-dependent bacterial log reduction in pure culture; type: cell-based, Listeria monocytogenes; settings: for Log CFU/ml: pure culture F4244, 16 hour incubation; for Log CFU reduction: relative to control, pure culture F4244
Protocol: as §1

L. monocytogenes F4244 [3] = assay: Time kill assay; type: cell-based, Listeria monocytogenes; settings: 12 hours
Protocol: L. monocytogenes F4244 in logarithmic growth phase was diluted to ~10^5 CFU/ml and incubated with 32 μM of the five PNAs (in triplicates) at 37 °C for 12 hours. Samples were collected every two hours, serially diluted, and plated onto TSA plates. Plates were then incubated wat 37 °C for 24 hours before viable CFUs were determined.
Samples were collected every 20 minutes and processed as above.

[4] = system: cytoplasmic membrane of L. monocytogenes F4244; assay: Calcein leakage assay; type: cell-based, Listeria monocytogenes; settings: 30 min exposure; PRXR 8 × MIC (8 μM), nisin 5 × MIC (10 μg/ml); fluorescence, n = 3
Protocol: To investigate the effect of PNA on the integrity of the Listeria cell membrane, the leakage of the preloaded fluorescent dye, calcein, was monitored and quantified as described before with a few modifications. Briefly, 20 ml of logarithmic growth phase (OD600 = 1.0, ~10^9 CFU/ml) L. monocytogenes F4244 was centrifuged and bacteria were resuspended in 9 ml of sterile PBS plus 1 ml of BHI. 3 μM of calcein AM dye was added to the bacterial suspension prior to covering the suspension with aluminum foil and incubating for one hour at 37 °C. After 10 minutes centrifugation at 3,000 × g, the supernatant was discarded. The calcein-loaded bacterial cells were resuspended in 30 ml of sterile PBS and 100 μL calcein-loaded bacteria were distributed in a 96-well microtiter plate (in triplicate). PRXR was added in a concentration equal to 8 × MIC (8 μM). Nisin 5 × MIC (10 μg/ml) and sterile water were used as positive and negative controls, respectively. Intensity of fluorescence (calcein leakage) was detected every 5 minutes for 30 minutes using a fluorescence plate reader (FLx800 model BioTek® Instruments, Inc. Winooski, Vermont) with the excitation and emission filters adjusted to 485 nm and 520 nm, respectively.

[5] = system: L. monocytogenes F4244 inside infected J774A.1 cells; type: cell-based; settings: 4 hours; for Log CFU/ml: intracellular F4244 in J774A.1; for Log CFU reduction: intracellular F4244 in J774A.1, versus control
MRSA USA300 = assay: MIC against MRSA in pure culture; type: cell-based; settings: multiple of the Listeria MIC, data not shown
L. monocytogenes F4244 [6] = assay: Time kill assay; type: cell-based, Listeria monocytogenes; settings: 8 μM PNA, 37 °C, samples every 20 minutes, inoculum 2.4 × 10^5 CFU/ml
[7] = system: L. monocytogenes J0161 in infected C. elegans; assay: C. elegans infection model; settings: 18 hours treatment; for Log CFUs reduction: versus water
Protocol: To test the efficacy of PNA in vivo we used Listeria-infected C. elegans. The temperature-sensitive sterile mutant strain C. elegans AU37 [sek-1(km4); glp-4(bn2) I] was used for this study. This strain is sterile at room temperature and can lay eggs only at 15 °C. Furthermore, mutation in the sek-1 gene of the p38 mitogen-activated protein kinase pathway (p38 MAPK pathway), makes this particular C. elegans strain more susceptible to Listeria infection[49][56]. Initially, the pathogenicity of three strains of Listeria (F4244, J0161 and ATCC19111) was tested in C. elegans as described before[24] to determine the most virulent strain to use for this study. […] Briefly, adult worms were grown for 5 days, at 15 °C (temperature that permits worms to lay eggs) on NGM agar plates seeded with a lawn of E. coli OP50. The eggs were harvested by bleaching[57] and maintained for 24 hours at room temperature with gentle agitation for hatching. Hatched larvae were transferred to a new NGM plate seeded with E. coli OP50 and were kept at room temperature for five days until worms reached the adult stage of growth. Adult worms were collected and washed three times with M9 media in a 1:10 ratio to remove E. coli before transfer to LB agar plates seeded with a lawn of L. monocytogenes J0161 for infection. After eight hours of infection, worms were collected and washed with M9 buffer five times before incubation with PNAs. Worms were transferred to low-binding microcentrifuge tubes (10 worms per tube). […] After treatment for 18 hours, worms were washed five times with M9 buffer. […] Samples were serially diluted and plated onto TSA plates containing 5 μg/ml nalidixic acid to select for Listeria.

Substance: RXRRXRRXRRXRXB-O-cgatcattcaaa-NH2 [PRXR]
- MIC50 ([1]; concentration required to inhibit 50% of L. monocytogenes isolates (six isolates)): 1 µM
- MIC ([1]; strain ATCC 13932): 2 µM
- MIC ([1]; strain ATCC 19111): 1 µM
- MIC ([1]; strain ATCC 19112): 1 µM
- MIC ([1]; strain ATCC 19114): 0.25 µM
- MIC ([1]; strain F4244, no turbidity): 1 µM
- MIC ([1]; strain J0161): 4 µM
- Log CFU/ml (L. monocytogenes F4244 [2]; 1 µM PNA): 6.87±0.84 Log CFU/ml
- Log CFU reduction (L. monocytogenes F4244 [2]; 1 µM PNA): 2.51 Log CFU
- Log CFU/ml (L. monocytogenes F4244 [2]; 2 µM PNA): 3.15±0.21 Log CFU/ml
- Log CFU reduction (L. monocytogenes F4244 [2]; 2 µM PNA): 6.24 Log CFU
- Log CFU/ml (L. monocytogenes F4244 [2]; 4 µM PNA): Cleared
- Log CFU reduction (L. monocytogenes F4244 [2]; 4 µM PNA): 9.39 Log CFU
- Log CFU/ml (L. monocytogenes F4244 [2]; 8 µM PNA): Cleared
- Log CFU reduction (L. monocytogenes F4244 [2]; 8 µM PNA): 9.39 Log CFU
- Log CFU/ml (L. monocytogenes F4244 [2]; 16 µM PNA): Cleared
- Log CFU reduction (L. monocytogenes F4244 [2]; 16 µM PNA): 9.39 Log CFU
- Log CFU/ml (L. monocytogenes F4244 [2]; 32 µM PNA): Cleared
- Log CFU reduction (L. monocytogenes F4244 [2]; 32 µM PNA): 9.39 Log CFU
- time to complete eradication of Listeria (L. monocytogenes F4244 [3]; 32 μM PNA, 37 °C, samples every 2 hours, ~10^5 CFU/ml): ≤ 2 h
- bactericidal or bacteriostatic activity (L. monocytogenes F4244 [3]; L. monocytogenes, time kill at 32 μM): bactericidal activity
- calcein leakage [4]: did not result in leakage; also recorded: does not permeabilize the bacterial cell membrane
- Log CFU/ml ([5]; 2 μM): 4.95 ± 0.07 Log CFU/ml
- Log CFU reduction ([5]; 2 μM): 1.78 Log CFU
- Log CFU/ml ([5]; 4 μM): 3.079 Log CFU/ml
- Log CFU reduction ([5]; 4 μM): 3.65* Log CFU
- Log CFU/ml ([5]; 8 μM): complete clearance; also recorded: cleared
- Log CFU reduction ([5]; 8 μM): 6.73* Log CFU
- concentration without inhibition of bacterial growth (MRSA USA300): > 16 × MIC
- time to complete elimination of starting inoculum (L. monocytogenes F4244 [6]): ≤ 20 min
- Log CFUs/worm ([7]; 16 µM, 10 worms in triplicates): 2.24±0.99 Log CFUs/worm
- Log CFUs reduction ([7]; 16 µM): 1.91 Log CFUs
- Log CFUs reduction ([7]; 32 µM): 4.38 Log CFUs
